Where a name gives a salt, the structure may show the parent alone.

For 24 molecules, IC50 results are on record in patent publication US11203592B2, “Inhibitors of indoleamine 2,3-dioxygenase and methods of their use” (BRISTOL-MYERS SQUIBB COMPANY, priority 2017, dated 2021).

Assay [1] deals with T1, indoleamine 2,3-dioxygenase (IDO) (Homo sapiens, UniProt P14902).
T1 construct: endogenous in cells; host or cells: HeLa (ATCC CCL-2), induced with IFNγ at 25 ng/mL
The assay can be described thus: HeLa cell-based indoleamine 2,3-dioxygenase (IDO) assay, kynurenine production. The note with it: HeLa cells, IFNγ 25 ng/mL, 48 hour incubation, kynurenine absorbance at 480 nm. As for the experimental part:
Assessment of Inhibitor Activity in HeLa Cell-Based Indoleamine 2,3-dioxygenase (IDO) Assay:
HeLa (ATCC® CCL-2) cells were obtained from the ATCC® and cultured in Dulbecco's Modified Eagle Medium supplemented with 4.5 g/L glucose, […] (#10-013-CV, Corning), 2 mM L-alanyl-L-glutamine dipeptide (#35050-061, Gibco), 100U/mL penicillin, 100 μg/mL streptomycin (#SV30010, HyClone) and 10% fetal bovine serum (#SH30071.03 HyClone). Cells were maintained in a humidified incubator at 37° C. in 5% CO2.
IDO activity was assessed as a function of kynurenine production as follows: HeLa cells were seeded in a 96-well culture plate at a density of 5,000 cells/well and allowed to equilibrate overnight. After 24 hours, the media was aspirated and replaced with media containing IFNγ (#285-IF/CF, R&D Systems) at a final concentration of 25 ng/mL. A serial dilution of each test compound was added to the cells in a total volume of 200 μL of culture medium. After a further 48 hour incubation, 170 μL of supernatant was transferred from each well to a fresh 96-well plate. 12.1 μL of 6.1N trichloroacetic acid (#T0699, Sigma-Aldrich) was added to each well and mixed, followed by incubation at 65° C. for 20 minutes to hydrolyze N-formylkynurenine, the product of indoleamine 2,3-dioxygenase, to kynurenine. The reaction mixture was then centrifuged for 10 mins at 500×g to sediment the precipitate. 100 μL of the supernatant was transferred from each well to a fresh 96-well plate. 100 μl of 2% (w/v) p-dimethylaminobenzaldehyde (#15647-7, Sigma-Aldrich) in acetic acid (#A6283, Sigma-Aldrich) was added to each well mixed and incubated at room temperature for 20 inns. Kynurenine concentrations were determined by measuring absorbance at 480 nm and calibrating against an L-kynurenine (#K8625, Sigma-Aldrich) standard curve using a SPECTRAMAX® M2e microplate reader (Molecular Devices). The percentage activity at each inhibitor concentration was determined and IC50 values assessed using nonlinear regression.

Assay [2] deals with T2, human IDO1 (Homo sapiens, UniProt P14902).
T2 construct: expressed in transfected cells
T2 sequence (P14902 whole entry): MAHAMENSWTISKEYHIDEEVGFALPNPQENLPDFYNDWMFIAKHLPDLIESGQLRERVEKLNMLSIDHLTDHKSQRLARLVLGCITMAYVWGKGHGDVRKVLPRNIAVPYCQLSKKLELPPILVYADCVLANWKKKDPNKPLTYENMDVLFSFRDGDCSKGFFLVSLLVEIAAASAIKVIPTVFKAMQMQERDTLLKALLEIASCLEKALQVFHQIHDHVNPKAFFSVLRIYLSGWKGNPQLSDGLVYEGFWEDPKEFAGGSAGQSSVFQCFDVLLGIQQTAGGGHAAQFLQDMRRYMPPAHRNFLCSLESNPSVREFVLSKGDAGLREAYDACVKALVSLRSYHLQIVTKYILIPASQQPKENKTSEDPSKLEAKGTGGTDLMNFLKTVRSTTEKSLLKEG
The assay can be described thus: human IDO1/HEK293 cell IDO inhibition assay. Format: cell-based. The following applies: HEK293 cells stably expressing human IDO1, 20 hours incubation, absorbance at 490 nm; read-out: IDO1 HEK Human IC50. The protocol: HEK293 cells were transfected with a pCDNA-based mammalian expression vector harboring human IDO1 cDNA (NM 002164.2) by electroporation. They were cultured in medium (DMEM with 10% FBS) containing 1 mg/ml G418 for two weeks. Clones of HEK293 cells that stably expressed human IDO1 protein were selected and expanded for IDO inhibition assay.
The human IDO1/HEK293 cells were seeded at 10,000 cells per 50 μL per well with RPMI/phenol red free media contains 10% FBS in a 384-well black wall clear bottom tissue culture plate (Matrix Technologies LLC) 100 nL of certain concentration of compound was then added to each well using ECHO liquid handling systems. The cells were incubated for 20 hours in 37° C. incubator with 5% CO2.
The compound treatments were stopped by adding trichloroacetic acid (Sigma-Aldrich) to a final concentration at 0.2%. The cell plate was further incubated at 50° C. for 30 minute. The equal volume supernatant (20 μL) and 0.2% (w/v) Ehrlich reagent (4-dimethylaminobenzaldehyde, Sigma-Aldrich) in glacial acetic acid were mixed in a new clear bottom 384-well plate. This plate was then incubated at room temperature for 30 minute. The absorbance at 490 nm was measured on Envision plate reader.
Compound IC50 values were calculated using the counts of 500 nM of a reference standard treatment as one hundred percent inhibition, and counts of no compound but DMSO treatment as zero percent inhibition.

T1 sequence (P14902 whole entry): as above

For orientation: IC50 means the concentration at which inhibition is half-maximal. With `CC(C(=O)Nc1ccc(Cl)cc1)[C@H]1CC[C@@]2(CC1)OCc1ccccc12` (mixture of isomers) [Example 4, rac-N-(4-Chlorophenyl)-2-((1r,4r)-3′H-spiro[cyclohexane-1,1′-isobenzofuran]-4-yl)propanamide], half-maximal inhibition in assay [1] (IC50) required 50 nM. Same read-out and setting: to `CC(C(=O)Nc1ccc(Cl)cc1)[C@H]1CC[C@]2(CC1)OCc1ccccc12` (mixture of isomers) [Example 5, N-(4-Chlorophenyl)-2-((1s,4s)-3′H-spiro[cyclohexane-1,1′-isobenzofuran]-4-yl)propanamide] belongs 92 nM; to `CC(C(=O)NC12CC3CC(CC(C3)C1)C2)[C@H]1CC[C@]2(CC1)OCc1ccccc12` (mixture of isomers) [Example 6, rac-N-((1R,3S)-Adamantan-1-yl)-2-((1S,4s)-3′H-spiro[cyclohexane-1,1′-isobenzofuran]-4-yl)propanamide], 1300 nM. Turning to `Cc1cccc2c1[C@]1(CC[C@@H](C(C)C(=O)Nc3ccc(Cl)cc3)CC1)OC2` (mixture of isomers) [Example 7, rac-N-(4-Chlorophenyl)-2-((1r,4r)-7′-methyl-3′H-spiro[cyclohexane-1,1′-isobenzofuran]-4-yl)propanamide], the IC50 in assay [2] came out at 37 nM.

Consider `Cc1cccc2c1[C@]1(CC[C@H](C(C)C(=O)Nc3ccc(Cl)cc3)CC1)OC2` (mixture of isomers) [Example 8, rac-N-(4-chlorophenyl)-2-((1s,4s)-7′-methyl-3′H-spiro[cyclohexane-1,1′-isobenzofuran]-4-yl)propanamide], for which the IC50 in assay [2] amounted to 24 nM.

`Cc1cccc2c1[C@]1(CC[C@H](C(C)C(=O)NC34CC5CC(CC(C5)C3)C4)CC1)OC2` (mixture of isomers) [Example 9, rac-N-((1R,3S)-adamantan-1-yl)-2-((1S,4s)-7′-methyl-3′H-spiro[cyclohexane-1,1′-isobenzofuran]-4-yl)propanamide]: in assay [2], the IC50 was 617 nM.

On to `Cc1cccc2c1[C@]1(CC[C@H](C(C)C(=O)NC3(C)CCCCC3)CC1)OC2` (mixture of isomers) [Example 10, rac-2-((1s,4s)-7′-methyl-3′H-spiro[cyclohexane-1,1′-isobenzofuran]-4-yl)-N-(1-methylcyclohexyl)propanamide], for which the IC50 in assay [2] was determined as 980 nM.

`CC(NC(=O)c1ccc(Cl)cc1)[C@H]1CC[C@]2(CC1)OCc1ccccc12` (mixture of isomers) [Example 11, rac-N-(1-((1s,4s)-3′H-spiro[cyclohexane-1,1′-isobenzofuran]-4-yl)ethyl)-4-chlorobenzamide] showed an IC50 in assay [1] of 45 nM.

In assay [1], `CC(NC(=O)C12CC3CC(CC(C3)C1)C2)[C@H]1CC[C@]2(CC1)OCc1ccccc12` (mixture of isomers) [Example 12, rac-(1R,3S)—N-(1-((1S,4s)-3′H-spiro[cyclohexane-1,1′-isobenzofuran]-4-yl)ethyl)adamantane-1-carboxamide] registered an IC50 of 1440 nM. In the case of `CC(C(=O)Nc1ccc(Cl)cc1)[C@H]1CC[C@@]2(CC1)COc1ccccc12` (mixture of isomers) [Example 14, rac-N-(4-Chlorophenyl)-2-((1′r,4′r)-2H-spiro[benzofuran-3,1′-cyclohexan]-4′-yl)propanamide], the IC50 in assay [2] was 5 nM. Same read-out and setting: the value for `CC(NC(=O)c1ccc(Cl)cc1)[C@H]1CC[C@@]2(CC1)COc1ccccc12` (mixture of isomers) [Example 17, rac-N-(1-((1′r,4′r)-2H-Spiro[benzofuran-3,1′-cyclohexan]-4′-yl)ethyl)-4-chlorobenzamide] was 59 nM; that for `CC(C(=O)Nc1ccc(Cl)cc1)[C@H]1CC[C@]2(CC1)COc1ccccc12` (mixture of isomers) [Example 20, rac-N-(4-Chlorophenyl)-2-((1′s,4′s)-2H-spiro[benzofuran-3,1′-cyclohexan]-4′-yl)propanamide] was 61 nM. Regarding `CC(NC(=O)c1ccc(Cl)cc1)[C@H]1CC[C@]2(CC1)COc1ccccc12` (mixture of isomers) [Example 21, rac-N-(1-((1′s,4′s)-2H-Spiro[benzofuran-3,1′-cyclohexan]-4′-yl)ethyl)-4-chlorobenzamide], the IC50 in assay [2] was 59 nM. The same measure, in the same setting: to `CC(c1nc2ncc(Cl)cc2[nH]1)[C@H]1CC[C@@]2(CC1)COc1ccccc12` (mixture of isomers) [Example 24, rac-2-(1-((1′r,4′r)-2H-Spiro[benzofuran-3,1′-cyclohexan]-4′-yl)ethyl)-6-chloro-1H-imidazo[4,5-b]pyridine TFA Salt] belongs 117 nM; to `CC(NC(=O)c1ccc(C#N)cc1)[C@H]1CC[C@]2(CC1)COc1ccccc12` (mixture of isomers) [Example 27, rac-N-(1-((1′s,4′s)-2H-Spiro[benzofuran-3,1′-cyclohexan]-4′-yl)ethyl)-4-cyanobenzamide], 93 nM. On the same count and under the same terms, the value for `Cc1cccc2c1OC(CO)[C@]21CC[C@H](CC(=O)Nc2ccc(Cl)cc2)CC1` (mixture of isomers) [Example 29, rac-N-(4-Chlorophenyl)-2-((1′r,2R,4′R)-2-(hydroxymethyl)-7-methyl-2H-spiro[benzofuran-3,1′-cyclohexan]-4′-yl)acetamide] was 68 nM; that for `Cc1cccc2c1OC(CO)[C@]21CC[C@@H](CC(=O)Nc2ccc(Cl)cc2)CC1` (mixture of isomers) [Example 30, rac-N-(4-Chlorophenyl)-2-((1′s,2R,4′S)-2-(hydroxymethyl)-7-methyl-2H-spiro[benzofuran-3,1′-cyclohexan]-4′-yl)acetamide] was 363 nM. The same measure, in the same setting: to `C[C@@H](C(=O)Nc1ccc(Cl)cc1)[C@H]1CC[C@@]2(CC1)COc1ccccc12` [Example 16, (R)—N-(4-Chlorophenyl)-2-((1′R,4′r)-2H-spiro[benzofuran-3,1′-cyclohexan]-4′-yl)propanamide] belongs 8 nM. For `C[C@@H](NC(=O)c1ccc(Cl)cc1)[C@H]1CC[C@@]2(CC1)COc1ccccc12` [Example 18, N—((R)-1-((1′R,4′r)-2H-Spiro[benzofuran-3,1′-cyclohexan]-4′-yl)ethyl)-4-chlorobenzamide], the IC50 in assay [2] was 9 nM. Still for that read-out and setting: to `C[C@H](NC(=O)c1ccc(Cl)cc1)[C@H]1CC[C@@]2(CC1)COc1ccccc12` [Example 19, N—((S)-1-((1'S,4′r)-2H-Spiro[benzofuran-3,1′-cyclohexan]-4′-yl)ethyl)-4-chlorobenzamide] belongs 914 nM; to `C[C@@H](c1nc2ccc(Cl)cc2[nH]1)[C@H]1CC[C@@]2(CC1)COc1ccccc12` [Example 22, 2-((R)-1-((3R,4′r)-2H-spiro[benzofuran-3,1′-cyclohexan]-4′-yl)ethyl)-6-chloro-1H-benzo[d]imidazole], 142 nM; to `C[C@H](c1nc2ccc(Cl)cc2[nH]1)[C@H]1CC[C@@]2(CC1)COc1ccccc12` [Example 23, 2-((S)-1-((3S,4′r)-2H-spiro[benzofuran-3,1′-cyclohexan]-4′-yl)ethyl)-6-chloro-1H-benzo[d]imidazole], 254 nM. For `C[C@@H](c1nc2ncc(Cl)cc2[nH]1)[C@H]1CC[C@@]2(CC1)COc1ccccc12` [Example 25, 2-((R)-1-((3R,4′r)-2H-spiro[benzofuran-3,1′-cyclohexan]-4′-yl)ethyl)-6-chloro-1H-imidazo[4,5-b]pyridine], in assay [2], the IC50 was 794 nM. As to `C[C@H](c1nc2ncc(Cl)cc2[nH]1)[C@H]1CC[C@@]2(CC1)COc1ccccc12` [Example 26, 2-((S)-1-((3S,4′r)-2H-spiro[benzofuran-3,1′-cyclohexan]-4′-yl)ethyl)-6-chloro-1H-imidazo[4,5-b]pyridine], the IC50 in assay [2] amounted to 43 nM.
